{"source": "patent US6677307B2", "about": "“TGF-α polypeptides, functional fragments and methods of use therefor” (Kaleidos Pharma, Inc., priority 1999, dated 2004)", "key": {"stem cells": {"system": "stem cells", "assay": "stimulation of cellular proliferation, 3H thymidine incorporation of stem cells", "type": "cell-based", "conditions": "loop peptides of human TGFα; compared to TGF-α 50 aa and 57 aa polypeptide; FIG. 2", "description": "Each of the three loop regions in human TGFα was investigated for TGFα-like biological activity, such as stimulation of cellular proliferation as measured by ^3H thymidine incorporation of stem cells. […] Accordingly, data from TGFα or TGF-α57 show what can be called “TGF-α activity” and that these are predictive of activity of the functional TGF-α peptide and similar functional TGF-α peptides embodied in the genus of formula I with or without the addition of a “tail” region of formula II."}, "[1]": {"system": "human CD34 positive and CD38 negative cells", "assay": "liquid primary culture of human bone-marrow enriched CD34 cells", "type": "cell-based", "conditions": "positive control, 500 ng/ml", "protocol": "An additional experiment investigated TGF-α activity (using TGF-α57) on human bone-marrow enriched CD34 cells. FACS-sorted human CD34 positive and CD38 negative cells were cultured in liquid primary cultures in Iscove's modified Dulbecco's media with supplements. […] Stem Cell Factor (SCF) was used as a positive control (500 ng/ml) and provided a three-fold increase in CD34 positive cells. When a combination of SCF (500 ng/ml) and TGFα (10 ng/ml) was added, a synergistic 12-fold increase in CD34 positive cells was observed."}, "mouse intestines": {"system": "mouse intestines", "assay": "histological examination of intestines of CP-treated mice", "type": "in vivo", "conditions": "CP treatment; 50 μg/kg; FIG. 4", "protocol": "The experiment procedure dosed those animals to be treated with TGFα 57 4 hours prior to challenge with CP. A single dose of CP was administered. Additional doses (as indicated) of TGFα 57 were made at 24 hours, 48 hours, 72 hours and 96 hours after the CP dose. All doses were made by IP injection. Controls were dosed with saline instead of either or both of CP and TGF-α57.\nThe animals were sacrificed about 4 hours after the last TGF-α57 (or saline) dose. Key organs were removed and spleens were immediately weighed after a clean incision. All the relevant organs were placed in formalin, transported for histopathological analysis, mounted, sectioned, stained and observed. The results of this histological analysis of the spleens for hematopoietic effect and the GI tract (below) provided surprising and unexpected data of the effect of TGF-α57 activity.\nTGFα or a peptide from formula I, formula II, formula III, formula IV, formula V, or formula VI having TGFα activity or combinations thereof are also useful for treating mucositis associated intestinal bleeding, dyspepsia caused by with cytotoxic therapy and for improving the barrier function of the GI tract compromised by cytotoxic therapy. The in vivo experiment with seven groups of mice described above for hematopoietic effects noted in spleens also examined the GI tract of these treated mice. […] A single row of intestinal crypt is found at the base of the mucosa. These crypts that lie between adjacent villi are surrounded by the same lamina propria that form the villous cores. Both columnar absorptive cells and goblet cells cover the villous surfaces. The goblet cells contain apical clear vacuoles. […] Specifically, the villus was long and slender. Both absorptive cells and goblet cells were visible at the surface of the villi, and there was an abundant amount of goblet cells on the surface.\nA 160×magnification of the intestines of a CP-treated mouse, a normal mouse and a CP treated and TGFα57 treated mouse at the same doses as described above. […] The crypts were irregularly shaped and in had various heights. […] The crypts also appeared normal.\nRed cells were visible at the damaged surface indicating intestinal bleeding. […] Globlet cells appeared interspersed, necrotic and fewer in number than normal. […] Specifically, the epithelial cells appeared normal with extended brush borders. The nuclei were very densely stained and elongated.\nThe histological data is summarized in FIG. 4 that measured average crypt height of the three groups of mice.\nAn alcian blue staining method permitted differentiation of absorptive cells and goblet cells. Goblet cell mucus is stained a blue color while the absorptive cells remain less stained. […] In the normal intestine each villus extended from the luminal surface to the basal muscularis mucosal surface. Goblet cells were scattered and predominated in the base of the villus whereas columnar absorptive cells lined the luminal surface. […] The injured absorptive and goblet cells were degenerating at the tip of the villi and abundant secretory mucus material was stained in the luminal surface. In the CP/TGF-α mouse, there were an increased number of goblet cells scattered throughout the villi. The intestinal villi appeared normal with elongation. […] The luminal plasma membranes of the villi were well protected by TGF-α treatment. The number of goblet cells was counted on the average unit length of intestine."}, "[2]": {"system": "immune cells (T cell lineage), mast cells", "assay": "immune cells, mast cells and cytokines in vivo after CP", "parameters": "species or system mice", "conditions": "in vivo", "description": "The stimulated immune cells were phenotypically identified as CD4 positive T cells and double null CD4 negative CD8 negative T cell progenitors. […] The in vivo activity of TGFα (and the functional peptides of formula I, formula II, formula III, and formula IV) to stimulate early T cell progenitors in the release of TH-1 and TH-2 cytokines and this regulation of immune phenomena. The stimulation of select immune cells, in particular cells of a T cell lineage, was seen consistently in the mice who received CP and TGF-α57 in lymphoid tissue, Peyers Patches and the spleen. Further, recruitment of help via CD4 cells in some cases boosts immune system function in general.\nThis is a parallel activity that is in addition to the gastrointestinal anti-inflammatory activity and prevention of mucositis of TGFα (and the functional peptides of formula I, formula II, formula III, and […]) described herein."}, "[3]": {"system": "chronic inflammatory-like gastrointestinal symptoms", "type": "in vivo, non-human primate", "parameters": "wt.: unit not given here", "conditions": "for wt.: non-human primate, 300 μg/kg ip once, then 50 μg/kg S.C. 6 days", "protocol": "(§1) In addition, studies of TGF-α for the treatment of diarrhea in non-human primates was also performed. […] This weight gain was maintained at least for several weeks post treatment. In addition, the reduction of SEGs (see column 6, Table 1) neutrophils correlates with reduction in inflammation associated with neutrophil influx and concomitant pro-inflammatory cytokines."}, "[4]": {"type": "in vivo", "conditions": "non-human primate, 300 μg/kg ip once, then 50 μg/kg S.C. 6 days", "protocol": "as §1"}, "[5]": {"conditions": "cited from earlier work"}, "[6]": {"system": "EGF receptor family (e.g., ErbB1 through 4)", "conditions": "background statement; cited from earlier work"}, "[7]": {"conditions": "acid and heat; background statement; cited from earlier work"}}, "note": "Read-outs that look alike come from different tables or passages of the source."}
{"substance": "Loop A: loop peptide region of TGFα, amino acids 1-21 starting at the N terminus (VVSHFNDCPDSHTQFCFHGTC)", "values": [{"measurement": "TGF-α biological activity (stimulation of cellular proliferation)", "setting": "stem cells", "value": "Only Loop C showed significant TGF-α activity"}]}
{"substance": "Loop C: loop peptide region of TGFα, amino acids 33 to 50; TGF-α mimetic peptide (VCHSGYVGARCEHADLLA)", "values": [{"measurement": "TGF-α biological activity (stimulation of cellular proliferation)", "setting": "stem cells", "value": "significant TGF-α biological activity"}]}
{"substance": "SCF: Stem Cell Factor, used as a positive control [reference compound]", "values": [{"measurement": "increase in CD34 positive cells", "setting": "[1]", "value": "three-fold"}]}
{"substance": "Loop B: loop peptide region of TGFα, amino acids 16 to 32 (CFHGTCRFLVQEDKPAC)", "values": [{"measurement": "TGF-α biological activity (stimulation of cellular proliferation)", "setting": "stem cells", "value": "Only Loop C showed significant TGF-α activity"}]}
{"substance": "TGF-α: human transforming growth factor alpha, 50 amino acid polypeptide with three disulfide bonds, SEQ ID NO:1", "values": [{"measurement": "average crypt height", "setting": "mouse intestines", "value": "more-than-restore crypt height loss"}, {"measurement": "IL-6 and MIP", "setting": "[2]", "value": "downregulating IL-6 and MIP"}, {"measurement": "TNF-α receptors", "setting": "[2]", "value": "downregulating TNF-α receptors"}, {"measurement": "mast cell degranulation and histamine release", "setting": "[2]", "value": "prevented mast cell degranulation and subsequent histamine release"}, {"measurement": "neutrophil trafficking", "setting": "[2]", "value": "blocking neutrophil trafficking"}, {"measurement": "stool consistency", "setting": "[3]; 300 μg/kg intraperitoneally once, then 50 μg/kg S.C. for 6 days", "value": "steady increase in stool consistency"}, {"measurement": "wt.", "setting": "[3]; Time 1", "value": 5.80}, {"measurement": "wt.", "setting": "[3]; Time 2", "value": 6.33}, {"measurement": "wt.", "setting": "[3]; Time 3", "value": 6.74}, {"measurement": "wt.", "setting": "[3]; Time 4", "value": 8.21}, {"measurement": "wt.", "setting": "[3]; Time 5", "value": 8.93}, {"measurement": "wt.", "setting": "[3]; Time 6", "value": 9.42}, {"measurement": "weight", "setting": "[3]; through the treatment period, 300 μg/kg intraperitoneally once, then 50 μg/kg S.C. for 6 days", "value": "steady weight gain"}, {"measurement": "CD4^+", "setting": "[4]; Time 1", "value": 28.4, "unit": "%"}, {"measurement": "CD8^+", "setting": "[4]; Time 1", "value": 56.3, "unit": "%"}, {"measurement": "Dual CD8^+ CD4^+", "setting": "[4]; Time 1", "value": 6.7, "unit": "%"}, {"measurement": "Seg", "setting": "[4]; Time 1", "value": 76, "unit": "%"}, {"measurement": "Seg", "setting": "[4]; Time 2", "value": 69, "unit": "%"}, {"measurement": "CD4^+", "setting": "[4]; Time 3", "value": 36.7, "unit": "%"}, {"measurement": "CD8^+", "setting": "[4]; Time 3", "value": 53.1, "unit": "%"}, {"measurement": "Dual CD8^+ CD4^+", "setting": "[4]; Time 3", "value": 6.3, "unit": "%"}, {"measurement": "Seg", "setting": "[4]; Time 3", "value": 61, "unit": "%"}, {"measurement": "CD4^+", "setting": "[4]; Time 4", "value": 31.3, "unit": "%"}, {"measurement": "CD8^+", "setting": "[4]; Time 4", "value": 54.0, "unit": "%"}, {"measurement": "Dual CD8^+ CD4^+", "setting": "[4]; Time 4", "value": 9.1, "unit": "%"}, {"measurement": "Seg", "setting": "[4]; Time 4", "value": 48, "unit": "%"}, {"measurement": "CD4^+", "setting": "[4]; Time 5", "value": 33.4, "unit": "%"}, {"measurement": "CD8^+", "setting": "[4]; Time 5", "value": 49.8, "unit": "%"}, {"measurement": "Dual CD8^+ CD4^+", "setting": "[4]; Time 5", "value": 8.1, "unit": "%"}, {"measurement": "Seg", "setting": "[4]; Time 5", "value": 46, "unit": "%"}, {"measurement": "CD4^+", "setting": "[4]; Time 6", "value": 35.1, "unit": "%"}, {"measurement": "CD8^+", "setting": "[4]; Time 6", "value": 50.3, "unit": "%"}, {"measurement": "Dual CD8^+ CD4^+", "setting": "[4]; Time 6", "value": 7.7, "unit": "%"}, {"measurement": "Seg", "setting": "[4]; Time 6", "value": 56, "unit": "%"}, {"measurement": "estimated pKa of the lysine 29 ε amino", "setting": "[5]", "value": 10.4}, {"measurement": "binding affinity", "setting": "[6]", "value": "high affinity in the nanomolar range"}, {"measurement": "stability", "setting": "[7]", "value": "acid and heat stable"}]}
